# In patent publication US4046765A, “Dihydroquinoline derivatives of antioxidant activity and a process for the preparation thereof” (priority 1971, dated 1977):
# Structures can show the parent of a compound that is named as a salt.
# Legend:
# [1] = antioxidant effect on fish-meal samples, oxygen uptake in Warburg apparatus and peroxide number; details: 40 g. fish meal + 0.04 g. antioxidant; for oxygen uptake (decrease of O2 pressure): 29° C., Warburg apparatus, control 19.5; for Peroxide Number: calculated for 1 g. of fish meal, after treatment with oxygen, control 7.83
# Method: The antioxidant effect of the new substances shown in foodstuffs and nutriments was investigated on fish-meal samples. […] In these experiments the oxygen uptake of fish-meal samples containing the various antioxidants was determined in a Warburg apparatus at 29° C., and the results were compared with those measured on samples containing no antioxidant. The peroxide number of samples treated with oxygen was also determined.
# [2] = test system: encephalomalacia of poultries; details: compared with EMQ; cited from earlier work
# [3] = in vivo; cited from earlier work
# [4] = biological systems, foodstuff mixtures; cited from earlier work
# [5] = known antioxidant; cited from earlier work
# [6] = 0.56 g./kg., longer period, animals; cited from earlier work
# rats [7] = details: 0.50 g./kg., 14 days; cited from earlier work
# solubility = format: physicochemical
# rats [8] = details: rat, in vivo
# Text: (§1) Since the novel compounds are completely nontoxic, they can be used with great advantage in animal husbandry and in the food industry, as well as in therapy. On the basis of the investigations carried out on the acute and chronic toxicity of these new active agents, it can be stated that they are completely free of the disadvantages of the hitherto-known antioxidants mentioned above, first of all as regards their use in therapy.
# rats [9] = test: chronic toxicity of XAX, continuous administration to rats; format: in vivo, rat
# Text: as §1
# serum cholesterol = serum cholesterol lowering in rabbits treated with cholesterol; format: in vivo, rabbit; details: 1 g. cholesterol per day, XAX 0.06 g./kg. daily, 70 or 105 days
# Method: Due to this fact they can also be used for the prophylaxis and treatment of arteriosclerosis. This effect of the new substances was investigated on rabbits treated with 1 g. of cholesterol per day. The animals were treated for 70 or 105 days with daily doses of 0.06 g./kg. of XAX. […] Using the hitherto-known antioxidants, this very favorable and important effect could not be reached at all.
# malignant tumors = test: appearance of malignant tumors in animals treated with minimum irradiation doses for a long period; format: in vivo; details: versus irradiated untreated animals
# Text: Another important and unexpected property of the new substances is that they exert radiosensibilizing effect. […] On the basis of this property, the new compounds can also be used for the potentiating of the effect of irradiation therapy.
# [10] = test system: liver cirrhosis caused by carbon tetrachloride; test: prophylactic activity against liver cirrhosis caused by carbon tetrachloride; format: in vivo
# [11] = 90 days, versus untreated animals
compound,measurement,setting,value
Cc1cc(C(C)(C)C)c(O)c(C(C)(C)C)c1 [BHT],oxygen uptake (decrease of O2 pressure),[1],16.5 mmHg
same,Peroxide Number,[1],3.42
same,activity in encephalomalacia of poultries versus EMQ,[2],far lower activity than EMQ
same,teratogeneous effect (anophthalmia),[3],"the appearance of anophthalmia was observed, indicating that the compound exerts a teratogeneous effect"
"c1ccc(Nc2ccc(Nc3ccccc3)cc2)cc1 [DPPD, N,N'-diphenyl-p-phenylenediamine]",activity as antioxidant,[4],relatively low activity
same,cancer-inducing effect,[5],cancer-inducing effect
"CCOc1ccc2c(c1)C(C)=CC(C)(C)N2 [EMQ, 6-ethoxy-2,2,4-trimethyl-1,2-dihydroquinoline]",oxygen uptake (decrease of O2 pressure),[1],23.5 mmHg
same,Peroxide Number,[1],2.87
same,appetite,[6],may cause appetite lowering
same,gain in weight,[6],lowers the gain in weight
same,appetite,rats [7],the appetite of the animals was lowered
same,size of the liver,rats [7],an increase in size of the liver was observed
"CC1=CC(C)(C)Nc2ccc(Cc3ccc4c(c3)C(C)=CC(C)(C)N4)cc21 [Example 8, bis-(2,2,4-trimethyl-1,2-dihydroquinolyl-6)-methane]",solubility in water and alcohol,solubility,well soluble in water and alcohol
"CC1=CC(C)(C)Nc2ccc(Cc3ccc4c(c3)C(C)=CC(C)(C)N4)cc21 [Example 9, bis-(2,2,4-trimethyl-1,2-dihydroquinolyl-6)-methane-dihydrochloride]",solubility in water and alcohol,solubility,soluble in water and alcohol
"CC1=CC(C)(C)Nc2ccc(Cc3ccc4c(c3)C(C)=CC(C)(C)N4)cc21 [XAX, bis-(2,2,4-trimethyl-1,2-dihydroquinolyl-6)-methane]",toxic symptoms,rats [8],no toxic symptoms
same,weight gain and blood picture,rats [9]; [11],Neither the weight gain nor the blood picture of the animals was harmfully affected
same,weight gain of some organs,rats [9]; [11],no excessive weight gain of some organs of the animals could be observed
same,damaging of tissues or cells,"rats [9]; daily 0.25 mg./kg., 3 weeks",no damaging of tissues or cells could be observed
same,oxygen uptake (decrease of O2 pressure),[1],11.5 mmHg
same,Peroxide Number,[1],1.54
same,cholesterol level of the blood,serum cholesterol,the cholesterol level of the blood decreased to a great extent
same,appearance of malignant tumors,malignant tumors,could be suppressed
same,prophylactic activity against liver cirrhosis,[10],great prophylactic activity
CC1=CC(C)(C)Nc2ccc(Cc3ccc4c(c3)C(C)=CC(C)(C)N4)cc21 [sulfuric acid salt of XAX],solubility in water and alcohol,solubility,soluble in water and alcohol
